What was measured:
Histone deacetylase = assay: Inhibition of HDAC in human HeLa nuclear extracts using fluorometric substrate incubated for 30 mins by fluorescence plate reader analysis; assay type: cell-based
Histone deacetylase 1 = Histone deacetylase 1 (Homo sapiens, UniProt Q13547); assay: Inhibition of recombinant human HDAC1 expressed in baculovirus expression system using Ac-Leu-Gly-Lys (Ac)-AMC as substrate preincubated for 5 mins followed by substrate addition and measured after 30 mins by fluorescence microtiter plate reader assay
Histone deacetylase 3 = Histone deacetylase 3 (Homo sapiens, UniProt O15379); assay: Inhibition of recombinant human His-tagged HDAC3 expressed in baculovirus insect cells using Ac-Leu-Gly-Lys (Ac)-AMC as substrate preincubated for 5 mins followed by substrate addition and measured after 30 mins by fluorescence microtiter plate reader assay
[1] = biological target: T1, Protein deacetylase HDAC6 (Homo sapiens, UniProt Q9UBN7); assay: Inhibition of recombinant human N-terminal GST tagged HDAC6 expressed in baculovirus infected Sf9 insect cells using Ac-Leu-Gly-Lys (Ac)-AMC as substrate preincubated for 5 mins followed by substrate addition and measured after 30 mins by fluorescence microtiter plate reader assay
T1 sequence (Q9UBN7 whole entry): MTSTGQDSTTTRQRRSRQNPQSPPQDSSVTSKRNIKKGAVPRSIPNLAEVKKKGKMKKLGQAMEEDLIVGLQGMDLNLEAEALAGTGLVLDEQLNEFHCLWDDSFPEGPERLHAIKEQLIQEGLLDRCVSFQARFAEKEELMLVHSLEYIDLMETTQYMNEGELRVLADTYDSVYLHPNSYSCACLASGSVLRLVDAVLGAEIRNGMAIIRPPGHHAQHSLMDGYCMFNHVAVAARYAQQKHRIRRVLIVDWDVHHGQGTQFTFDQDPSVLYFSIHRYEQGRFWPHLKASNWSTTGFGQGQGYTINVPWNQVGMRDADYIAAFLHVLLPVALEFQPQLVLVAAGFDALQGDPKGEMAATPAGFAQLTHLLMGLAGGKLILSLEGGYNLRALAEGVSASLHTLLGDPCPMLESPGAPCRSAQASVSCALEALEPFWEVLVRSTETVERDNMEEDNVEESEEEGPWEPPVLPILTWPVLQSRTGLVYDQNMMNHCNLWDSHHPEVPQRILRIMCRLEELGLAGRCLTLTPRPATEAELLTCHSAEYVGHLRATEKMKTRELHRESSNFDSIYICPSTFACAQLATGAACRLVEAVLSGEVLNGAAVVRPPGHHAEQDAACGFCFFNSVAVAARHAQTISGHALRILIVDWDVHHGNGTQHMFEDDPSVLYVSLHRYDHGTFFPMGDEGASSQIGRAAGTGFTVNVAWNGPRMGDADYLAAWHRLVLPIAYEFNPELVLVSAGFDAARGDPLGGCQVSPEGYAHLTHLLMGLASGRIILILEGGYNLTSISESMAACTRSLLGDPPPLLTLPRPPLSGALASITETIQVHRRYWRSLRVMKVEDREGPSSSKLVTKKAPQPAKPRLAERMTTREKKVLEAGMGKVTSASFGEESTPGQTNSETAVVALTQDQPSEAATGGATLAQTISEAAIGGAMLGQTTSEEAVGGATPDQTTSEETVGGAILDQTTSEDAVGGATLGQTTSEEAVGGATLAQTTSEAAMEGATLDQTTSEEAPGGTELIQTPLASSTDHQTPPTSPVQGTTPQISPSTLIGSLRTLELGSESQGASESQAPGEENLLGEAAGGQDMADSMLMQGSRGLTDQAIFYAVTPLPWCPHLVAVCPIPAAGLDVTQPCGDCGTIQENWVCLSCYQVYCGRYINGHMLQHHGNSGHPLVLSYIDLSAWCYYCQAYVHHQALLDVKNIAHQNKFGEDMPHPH

Histone deacetylase 8 = biological target: T2, Histone deacetylase 8 (Homo sapiens, UniProt Q9BY41); assay: Inhibition of full length recombinant human C-terminal His tagged HDAC8 expressed in baculovirus infected Sf9 insect cells using Ac-Leu-GlyLys (Tfa)-AMC as substrate preincubated for 5 mins followed by substrate addition and measured after 30 mins by fluorescence microtiter plate reader assay
T2 sequence (Q9BY41 whole entry): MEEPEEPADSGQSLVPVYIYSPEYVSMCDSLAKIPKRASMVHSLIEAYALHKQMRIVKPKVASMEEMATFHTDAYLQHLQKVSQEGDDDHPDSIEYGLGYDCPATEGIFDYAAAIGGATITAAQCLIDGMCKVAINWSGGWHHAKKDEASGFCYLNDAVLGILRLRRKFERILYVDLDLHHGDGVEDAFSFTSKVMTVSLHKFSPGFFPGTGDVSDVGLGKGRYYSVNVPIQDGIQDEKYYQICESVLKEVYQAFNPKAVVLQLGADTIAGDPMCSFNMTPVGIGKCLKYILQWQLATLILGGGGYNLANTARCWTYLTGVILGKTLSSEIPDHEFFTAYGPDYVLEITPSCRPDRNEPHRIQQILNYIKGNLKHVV

HCT-116 = assay: cells; assay type: functional, cell-based; conditions: Homo sapiens, HCT-116, 48 h
Description: Antiproliferative activity against human HCT-116 cells assessed as inhibition of cell proliferation measured after 48 hrs by MTT assay

A549 = assay: cells; assay type: functional, cell-based; conditions: Homo sapiens, A549, 48 h
Description: Antiproliferative activity against human A549 cells assessed as inhibition of cell proliferation measured after 48 hrs by MTT assay

MCF7 = assay: cells; assay type: functional, cell-based; conditions: Homo sapiens, MCF7, 48 h
Description: Antiproliferative activity against human MCF7 cells assessed as inhibition of cell proliferation measured after 48 hrs by MTT assay

[2] = Cytotoxicity against human Jurkat cells assessed as reduction in cell viability incubated for 72 hrs by CCK-8 assay
B16-F10 = assay: cells; assay type: functional, cell-based; conditions: Mus musculus, B16-F10, 48 h
Description: Antiproliferative activity against mouse B16-F10 cells assessed as inhibition of cell proliferation measured after 48 hrs by MTT assay

[3] = Antiproliferative activity against human YCC-11 cells assessed as cell growth inhibition; assay type: functional, cell-based
[4] = Antiproliferative activity against human YCC3/7 cells assessed as cell growth inhibition; assay type: functional, cell-based

Chain of Histone deacetylase 1 (Q13547 whole entry): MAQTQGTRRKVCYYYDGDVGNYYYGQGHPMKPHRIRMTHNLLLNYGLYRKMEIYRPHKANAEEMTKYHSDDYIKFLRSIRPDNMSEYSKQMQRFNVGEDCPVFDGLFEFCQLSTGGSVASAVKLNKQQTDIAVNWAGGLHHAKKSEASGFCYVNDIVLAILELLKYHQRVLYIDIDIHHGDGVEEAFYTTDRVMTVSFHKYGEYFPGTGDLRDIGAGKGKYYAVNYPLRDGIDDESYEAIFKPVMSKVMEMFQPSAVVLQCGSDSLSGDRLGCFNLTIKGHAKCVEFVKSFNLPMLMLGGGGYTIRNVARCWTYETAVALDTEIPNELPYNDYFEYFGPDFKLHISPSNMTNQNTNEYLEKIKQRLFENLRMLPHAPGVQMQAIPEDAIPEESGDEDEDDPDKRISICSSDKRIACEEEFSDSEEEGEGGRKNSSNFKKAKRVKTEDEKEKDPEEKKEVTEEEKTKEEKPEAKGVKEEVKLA
Chain of Histone deacetylase 3 (O15379 whole entry): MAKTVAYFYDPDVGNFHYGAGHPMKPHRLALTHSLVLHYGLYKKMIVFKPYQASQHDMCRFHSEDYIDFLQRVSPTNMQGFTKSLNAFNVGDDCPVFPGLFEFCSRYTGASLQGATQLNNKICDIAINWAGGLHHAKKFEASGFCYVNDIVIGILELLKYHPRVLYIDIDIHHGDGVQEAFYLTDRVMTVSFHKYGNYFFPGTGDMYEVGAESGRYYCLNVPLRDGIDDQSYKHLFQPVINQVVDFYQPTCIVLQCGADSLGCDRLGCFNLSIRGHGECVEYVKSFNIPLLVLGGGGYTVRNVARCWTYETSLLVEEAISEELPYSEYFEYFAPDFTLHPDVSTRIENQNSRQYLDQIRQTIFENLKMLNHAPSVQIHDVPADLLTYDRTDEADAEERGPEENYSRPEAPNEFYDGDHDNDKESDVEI

IC50 (Histone deacetylase) [µM]	IC50 (Histone deacetylase 1) [µM]	IC50 (Histone deacetylase 3) [µM]	IC50 [1] [µM]	IC50 (Histone deacetylase 8) [µM]	IC50 (HCT-116) [µM]	IC50 (A549) [µM]	IC50 (MCF7) [µM]	IC50 (B16-F10) [µM]	SMILES	IC50 at 72 h [2] [µM]	IC50 [3] [µM]	IC50 [4] [µM]
0.72	–	> 10	0.94	–	–	–	–	–	COc1cc(OC)cc(-c2ncc(/C=C/C(=O)NO)s2)c1	–	–	–
0.68	–	> 10	0.77	–	–	–	–	–	O=C(/C=C/c1cnc(-c2ccc3c(c2)OCCO3)s1)NO	–	–	–
0.81	–	–	–	–	–	–	–	–	Cc1cccc(-c2ncc(/C=C/C(=O)Nc3ccccc3N)s2)c1	–	–	–
0.11	5.03	6.23	1.09	2.56	3.27	> 10	4.78	> 10	COc1ccc(-c2ncc(/C=C/C(=O)NO)s2)c(OC)c1OC	0.59	3.77	8.17
0.55	–	> 10	0.97	–	–	–	–	–	O=C(/C=C/c1cnc(-c2ccc(N3CCOCC3)cc2)s1)NO	–	–	–
0.66	–	–	–	–	–	–	–	–	COc1cccc(-c2ncc(/C=C/C(=O)NO)s2)c1	–	–	–
0.1	3.21	7.66	2.1	2.22	1.82	3.08	1.3	5.09	COc1cc(-c2ncc(/C=C/C(=O)NO)s2)cc(OC)c1OC	0.36	4.8	5.18
0.94	–	–	–	–	–	–	–	–	O=C(/C=C/c1cnc(-c2ccc(F)cc2F)s1)NO	–	–	–
0.89	–	–	–	–	–	–	–	–	O=C(/C=C/c1cnc(-c2ccc3c(c2)OCO3)s1)NO	–	–	–
0.13	4.34	5.11	0.91	3.74	4.12	> 10	5.36	> 10	COc1ccc(-c2ncc(/C=C/C(=O)NO)s2)cc1	0.74	3.07	4.21

The remaining lines, values behind:

SMILES	IC50 (Histone deacetylase) [µM]	IC50 (Histone deacetylase 1) [µM]	IC50 (Histone deacetylase 3) [µM]	IC50 [1] [µM]	IC50 (Histone deacetylase 8) [µM]	IC50 (HCT-116) [µM]	IC50 (A549) [µM]	IC50 (MCF7) [µM]	IC50 (B16-F10) [µM]	IC50 at 72 h [2] [µM]	IC50 [3] [µM]	IC50 [4] [µM]
COc1cccc(-c2ncc(/C=C/C(=O)Nc3ccccc3N)s2)c1	0.58	13.5	4.87	9.53	13.4	3.91	7.64	6.05	> 10	0.56	8.56	9.91
Nc1ccccc1NC(=O)/C=C/c1cnc(-c2ccc3cc[nH]c3c2)s1	0.63	–	2.03	> 10	–	–	–	–	–	–	–	–
COc1ccc(-c2ncc(C(=O)NCCCC(=O)NO)s2)c(OC)c1	0.73	–	–	–	–	–	–	–	–	–	–	–
O=C(CCCCCCNC(=O)c1cnc(-c2ccc(OC(F)(F)F)cc2)s1)NO	0.7	–	8.07	0.71	–	–	–	–	–	–	–	–
COc1ccc(-c2ncc(C(=O)NCCCCCCC(=O)NO)s2)cc1	0.71	–	> 10	0.61	–	–	–	–	–	–	–	–
COc1ccc(-c2ncc(/C=C/C(=O)Nc3ccccc3N)s2)cc1OC	0.53	10.4	2.22	8.81	11.5	1.8	5.24	3.05	6.37	0.34	4.59	6.28
COc1cc(OC)cc(-c2ncc(C(=O)NCCCCCCC(=O)NO)s2)c1	0.79	–	9.09	0.76	–	–	–	–	–	–	–	–
COc1ccc(-c2ncc(/C=C/C(=O)Nc3ccccc3N)s2)cc1	0.71	–	1.79	> 10	–	–	–	–	–	–	–	–
COc1ccccc1-c1ncc(C(=O)NCCCCCCC(=O)NO)s1	0.27	5.13	6.49	0.65	10.2	0.91	5.04	1.93	> 10	0.35	2.69	6.68
Cc1ccc(-c2ncc(/C=C/C(=O)Nc3ccccc3N)s2)cc1	0.66	–	1.03	> 10	–	–	–	–	–	–	–	–
COc1ccc(-c2ncc(C(=O)NCCCCCC(=O)NO)s2)c(OC)c1	0.35	11.2	12.4	0.076	19.8	2.19	6.71	2.81	2.94	1.72	6.52	8.73
CC(C)(C)OC(=O)Nc1ccc(-c2ncc(C(=O)NCCCCCCC(=O)NO)s2)cc1	0.29	9.32	5.88	0.067	5.22	2.88	> 10	> 10	> 10	1.34	2.09	10.1
O=C(CCCCCCNC(=O)c1cnc(-c2ccc(Cl)cc2)s1)NO	0.96	–	–	–	–	–	–	–	–	–	–	–
COc1cc(-c2ncc(C(=O)NCCCCCCC(=O)NO)s2)cc(OC)c1OC	0.67	–	> 10	0.8	–	–	–	–	–	–	–	–
Nc1ccccc1NC(=O)c1ccc(CNC(=O)OCc2cccnc2)cc1 [ENTINOSTAT]	–	–	–	–	–	–	–	–	–	–	5.53	12.9
COc1ccc(-c2ncc(C(=O)NCCCCC(=O)NO)s2)c(OC)c1	0.69	–	9.91	0.62	–	–	–	–	–	–	–	–
O=C(CCCCCCNC(=O)c1cnc(-c2ccc(Oc3ccccc3)cc2)s1)NO	0.8	–	–	–	–	–	–	–	–	–	–	–
O=C(CCCCCCNC(=O)c1cnc(-c2ccc(F)cc2)s1)NO	1.02	–	–	–	–	–	–	–	–	–	–	–
COc1cccc(-c2ncc(C(=O)NCCCCCCC(=O)NO)s2)c1	0.44	3.93	9.27	0.59	15.2	0.93	6.03	1.9	3.52	0.33	1.3	1.56
COc1cc(-c2ncc(/C=C/C(=O)Nc3ccccc3N)s2)cc(OC)c1OC	0.08	9.79	2.98	9.33	14.2	1.65	> 10	2.54	7.62	0.58	1.65	3.03
COc1ccc(-c2ncc(/C=C/C(=O)Nc3ccccc3N)s2)c(OC)c1OC	0.63	–	1.55	> 10	–	–	–	–	–	–	–	–

From ChEMBL document CHEMBL5042524, “Discovery of Novel Histone Deacetylase 6 (HDAC6) Inhibitors with Enhanced Antitumor Immunity of Anti-PD-L1 Immunotherapy in Melanoma” (J Med Chem, 2022)
